Measured values as given in patent US6737383B1, “Herbicidal oxadiazolidines” (priority 1999, dated 2004).

Legend:
cocklebur = test: Test B pre/postemergence cocklebur; format: in vivo, Xanthium strumarium
In short: (§1)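 Test chemicals in a non-phytotoxic solvent mixture with surfactant were sprayed preemergence onto planted seeds and postemergence onto plants 2 to 18 cm tall (1- to 4-leaf stage). After twelve to sixteen days in a greenhouse, injury was visually rated against untreated controls from 0 (no effect) to 10 (complete control).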

giant foxtail = test: Test B pre/postemergence giant foxtail; format: in vivo, Setaria faberii
In short: as §1

rape = test: Test B pre/postemergence rape; format: in vivo, Brassica napus
In short: as §1

blackgrass = test: Test B pre/postemergence blackgrass; format: in vivo, Alopecurus myosuroides
In short: as §1

crabgrass = test: Test B pre/postemergence crabgrass; format: in vivo, Digitaria sanguinalis
In short: as §1

corn = test: Test B pre/postemergence corn; format: in vivo, Zea mays
In short: as §1

soybean = test: Test B pre/postemergence soybean; format: in vivo, Glycine max
In short: as §1

rice = test: Test B flood test rice; format: in vivo, Oryza sativa
In short: (§2)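 Flood test on plants grown to the 2-leaf stage; treated plants kept in greenhouse twelve to sixteen days, then visually rated against controls on a 0 (no effect) to 10 (complete control) scale.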

bamyardgrass = test: Test B flood test barnyardgrass; format: in vivo, Echinochloa crus-galli
In short: as §2

surinam grass = test: Test B pre/postemergence surinam grass; format: in vivo, Brachiaria decumbens
In short: as §1

duck salad = test: Test B flood test duck salad; format: in vivo, Heteranthera limosa
In short: as §2

sugar beet = test: Test B pre/postemergence sugar beet; format: in vivo, Beta vulgaris
In short: as §1

pigweed = test: Test B pre/postemergence pigweed; format: in vivo, Amaranthus retroflexus
In short: as §1

wild oat = test: Test B pre/postemergence wild oat; format: in vivo, Avena fatua
In short: as §1

velvetleaf = test: Test B pre/postemergence velvetleaf; format: in vivo, Abutilon theophrasti
In short: as §1

wheat = test: Test B pre/postemergence wheat; format: in vivo, Triticum aestivum
In short: as §1

smallflower flatsedge = test: Test B flood test smallflower flatsedge; format: in vivo, Cyperus difformis
In short: as §2

purple nutsedge = test: Test B pre/postemergence purple nutsedge; format: in vivo, Cyperus rotundus
In short: as §1

morningglory = test: Test B pre/postemergence morningglory; format: in vivo, Ipomoea hederacea
In short: as §1

bedstraw = test: Test B pre/postemergence bedstraw; format: in vivo, Galium aparine; conditions: Preemergence
In short: as §1

[1] = Postemergence, Rate 62 g/ha, scale of 0 to 10, 0 is no effect, 10 is complete control
[2] = Postemergence, Rate 125 g/ha, scale of 0 to 10 where 0 is no effect and 10 is complete control
[3] = Postemergence, Rate 250 g/ha, scale of 0 to 10, 0 is no effect, 10 is complete control
[4] = Postemergence, Rate 500 g/ha, scale of 0 to 10 where 0 is no effect and 10 is complete control
[5] = Preemergence, Rate 62 g/ha, scale 0 to 10 (0 no effect, 10 complete control)
[6] = Preemergence, Rate 125 g/ha, scale of 0 to 10 where 0 is no effect and 10 is complete control
[7] = Preemergence, Rate 500 g/ha, scale of 0 to 10 where 0 is no effect and 10 is complete control
[8] = Rate 62 g/ha, flood test species, Pre-emergence, visual evaluation after twelve to sixteen days
[9] = Rate 125 g/ha, under heading Pre-emergence, flood test species, visual evaluation after twelve to sixteen days
[10] = Rate 250 g/ha, Pre-emergence (flood test species), scale 0 to 10, 0 is no effect, 10 is complete control
[11] = Rate 500 g/ha, Pre-emergence section of Table B, 0 to 10 scale (0 no effect, 10 complete control)

For `COC(C)n1c(=O)on(C(=O)N(c2ccc(F)cc2F)C(C)C)c1=O` (stereo not drawn) [Compound 593], the “Cocklebur plant response rating” value (cocklebur; [1]) was 0, the “Plant response rating, Cocklebur” value (cocklebur; [2]) was 0 and the “Cocklebur plant response rating” value (cocklebur; [3]) was 0. For the same compound, the “Plant response rating, Cocklebur” value (cocklebur; [4]) was 0, the “Cocklebur plant response rating” value (cocklebur; [5]) was 0 and the “Cocklebur plant response rating” value (cocklebur; [6]) was 0. The “Cocklebur plant response rating (0 to 10 scale)” value (cocklebur; Preemergence, Rate 250 g/ha) was 0, the “Plant response rating, Cocklebur” value (cocklebur; [7]) was 0 and the “Giant foxtail plant response rating” value (giant foxtail; [1]) was 0. The “Plant response rating, Giant foxtail” value (giant foxtail; [2]) was 0, the “Giant foxtail plant response rating” value (giant foxtail; [3]) was 0 and the “Plant response rating, Giant foxtail” value (giant foxtail; [4]) was 0. For the same compound, the “Giant foxtail plant response rating” value (giant foxtail; [5]) was 0, the “Giant foxtail plant response rating” value (giant foxtail; [6]) was 0 and the “Plant response rating, Giant foxtail” value (giant foxtail; [7]) was 0. For the same compound, the “Rape plant response rating” value (rape; [1]) was 0, the “Plant response rating, Rape” value (rape; [2]) was 0 and the “Rape plant response rating” value (rape; [3]) was 0. The “Plant response rating, Rape” value (rape; [4]) was 0, the “Rape plant response rating” value (rape; [5]) was 0 and the “Rape plant response rating” value (rape; [6]) was 0. For the same compound, the “Plant response rating, Rape” value (rape; [7]) was 0, the “Blackgrass plant response rating” value (blackgrass; [1]) was 0 and the “Plant response rating, Blackgrass” value (blackgrass; [2]) was 0. The “Blackgrass plant response rating” value (blackgrass; [3]) was 0, the “Plant response rating, Blackgrass” value (blackgrass; [4]) was 0 and the “Blackgrass plant response rating” value (blackgrass; [5]) was 0. The “Blackgrass plant response rating” value (blackgrass; [6]) was 0, the “Blackgrass plant response rating (0 to 10 scale)” value (blackgrass; Preemergence, Rate 250 g/ha) was 0 and the “Blackgrass plant response rating” value (blackgrass; [7]) was 0. For the same compound, the “Crabgrass plant response rating” value (crabgrass; [1]) was 0, the “Plant response rating, Crabgrass” value (crabgrass; [2]) was 0 and the “Crabgrass plant response rating” value (crabgrass; [3]) was 0. For the same compound, the “Crabgrass plant response rating” value (crabgrass; [5]) was 0, the “Crabgrass plant response rating” value (crabgrass; [6]) was 0 and the “Plant response rating, Crabgrass” value (crabgrass; [7]) was 0. For the same compound, the “Corn plant response rating” value (corn; [1]) was 0, the “Plant response rating, Corn” value (corn; [2]) was 0 and the “Corn plant response rating” value (corn; [3]) was 0. For the same compound, the “Plant response rating, Corn” value (corn; [4]) was 0, the “Corn plant response rating” value (corn; [5]) was 0 and the “Corn plant response rating” value (corn; [6]) was 0. The “Corn plant response rating (0 to 10 scale)” value (corn; Preemergence, Rate 250 g/ha) was 0, the “Plant response rating, Corn” value (corn; [7]) was 0 and the “Plant response rating, Soybean” value (soybean; [2]) was 0. The “Soybean plant response rating” value (soybean; [3]) was 0, the “Plant response rating, Soybean” value (soybean; [4]) was 1 and the “Soybean plant response rating” value (soybean; [5]) was 0. The “Soybean plant response rating” value (soybean; [6]) was 0, the “Plant response rating, Soybean” value (soybean; [7]) was 0 and the “Plant response rating, Rice (0 to 10 scale, 0 is no effect, 10 is complete control)” value (rice; [8]) was 0. The “Rice plant response rating (0 to 10 scale, 0 is no effect, 10 is complete control)” value (rice; [9]) was 0, the “Rice plant response rating” value (rice; [10]) was 0 and the “Rice plant response rating” value (rice; [11]) was 0. For the same compound, the “Plant response rating, Barnyardgrass (0 to 10 scale, 0 is no effect, 10 is complete control)” value (bamyardgrass; [8]) was 0, the “Barnyardgrass plant response rating (0 to 10 scale, 0 is no effect, 10 is complete control)” value (bamyardgrass; [9]) was 0 and the “Barnyardgrass plant response rating” value (bamyardgrass; [10]) was 0. The “Barnyardgrass plant response rating” value (bamyardgrass; [11]) was 0, the “B. signalgrass plant response rating” value (surinam grass; [1]) was 0 and the “Plant response rating, B. signalgrass” value (surinam grass; [2]) was 0. The “B. signalgrass plant response rating” value (surinam grass; [3]) was 0, the “Plant response rating, B. signalgrass” value (surinam grass; [4]) was 0 and the “B. signalgrass plant response rating” value (surinam grass; [5]) was 0. The “B. signalgrass plant response rating” value (surinam grass; [6]) was 0, the “B. signalgrass plant response rating (0 to 10 scale, 0 is no effect, 10 is complete control)” value (surinam grass; Preemergence, Rate 250 g/ha) was 0 and the “B. signalgrass plant response rating” value (surinam grass; [7]) was 0. The “Plant response rating, Ducksalad (0 to 10 scale, 0 is no effect, 10 is complete control)” value (duck salad; [8]) was 0, the “Ducksalad plant response rating (0 to 10 scale, 0 is no effect, 10 is complete control)” value (duck salad; [9]) was 0 and the “Ducksalad plant response rating” value (duck salad; [10]) was 0. For the same compound, the “Ducksalad plant response rating” value (duck salad; [11]) was 0, the “Plant response rating, Sugarbeets” value (sugar beet; [2]) was 0 and the “Sugarbeets plant response rating” value (sugar beet; [3]) was 0. The “Plant response rating, Sugarbeets” value (sugar beet; [4]) was 0, the “Sugarbeets plant response rating” value (sugar beet; [5]) was 0 and the “Sugarbeets plant response rating” value (sugar beet; [6]) was 0. For the same compound, the “Plant response rating, Sugarbeets” value (sugar beet; [7]) was 0, the “Plant response rating, Redroot pigweed” value (pigweed; [2]) was 0 and the “Redroot pigweed plant response rating” value (pigweed; [3]) was 0. The “Plant response rating, Redroot pigweed” value (pigweed; [4]) was 0, the “Redroot pigweed plant response rating” value (pigweed; [5]) was 0 and the “Redroot pigweed plant response rating” value (pigweed; [6]) was 0. For the same compound, the “Plant response rating, Redroot pigweed” value (pigweed; [7]) was 0, the “Plant response rating, Wild oats” value (wild oat; [2]) was 0 and the “Wild oats plant response rating” value (wild oat; [3]) was 0. The “Plant response rating, Wild oats” value (wild oat; [4]) was 0, the “Wild oats plant response rating” value (wild oat; [5]) was 0 and the “Wild oats plant response rating” value (wild oat; [6]) was 0. The “Plant response rating, Wild oats” value (wild oat; [7]) was 0, the “Plant response rating, Velvetleaf” value (velvetleaf; [2]) was 0 and the “Velvetleaf plant response rating” value (velvetleaf; [3]) was 0. The “Plant response rating, Velvetleaf” value (velvetleaf; [4]) was 0, the “Velvetleaf plant response rating” value (velvetleaf; [5]) was 0 and the “Velvetleaf plant response rating” value (velvetleaf; [6]) was 0. The “Plant response rating, Velvetleaf” value (velvetleaf; [7]) was 0, the “Plant response rating, Wheat” value (wheat; [2]) was 0 and the “Wheat plant response rating” value (wheat; [3]) was 0. For the same compound, the “Plant response rating, Wheat” value (wheat; [4]) was 0, the “Wheat plant response rating” value (wheat; [5]) was 0 and the “Wheat plant response rating” value (wheat; [6]) was 0. For the same compound, the “Plant response rating, Wheat” value (wheat; [7]) was 0, the “Plant response rating, S. Flatsedge (0 to 10 scale, 0 is no effect, 10 is complete control)” value (smallflower flatsedge; [8]) was 0 and the “S. Flatsedge plant response rating (0 to 10 scale, 0 is no effect, 10 is complete control)” value (smallflower flatsedge; [9]) was 0. For the same compound, the “S. Flatsedge plant response rating” value (smallflower flatsedge; [10]) was 0, the “S. Flatsedge plant response rating” value (smallflower flatsedge; [11]) was 0 and the “Nutsedge plant response rating” value (purple nutsedge; [1]) was 0. For the same compound, the “Plant response rating, Nutsedge” value (purple nutsedge; [2]) was 0, the “Nutsedge plant response rating” value (purple nutsedge; [3]) was 0 and the “Plant response rating, Nutsedge” value (purple nutsedge; [4]) was 0. The “Nutsedge plant response rating” value (purple nutsedge; [5]) was 0, the “Nutsedge plant response rating” value (purple nutsedge; [6]) was 0 and the “Plant response rating, Nutsedge” value (purple nutsedge; [7]) was 2. For the same compound, the “Morningglory plant response rating” value (morningglory; [1]) was 0, the “Plant response rating, Morningglory” value (morningglory; [2]) was 0 and the “Morningglory plant response rating” value (morningglory; [3]) was 0. For the same compound, the “Plant response rating, Morningglory” value (morningglory; [4]) was 2, the “Morningglory plant response rating” value (morningglory; [5]) was 0 and the “Morningglory plant response rating” value (morningglory; [6]) was 0. For the same compound, the “Plant response rating, Morningglory” value (morningglory; [7]) was 0, the “Bedstraw plant response rating” value (bedstraw; Rate 62 g/ha, scale 0 to 10 (0 no effect, 10 complete control)) was 0 and the “Bedstraw plant response rating (0 to 10 scale)” value (bedstraw; Rate 250 g/ha) was 0.
